Experimental data: patent US20250270191A1, “QUINOLONE BCL6 BIFUNCTIONAL DEGRADERS” (Treeline Biosciences, Inc., priority 2022, published 2025)

Key:
[1] = biological target: T1, Human BCL6 protein (N-terminal HiBiT tagged BCL6 in HT1080 cells) (Homo sapiens, UniProt P41182+Q96SW2); assay: HiBiT based BCL6 degradation assay; type: cell-based; conditions: HT1080 cells expressing N-terminal HiBiT tagged BCL6; 5 hours incubation; BCL6 degradation normalized with DMSO control
T1 construct: Human BCL6 protein coding open reading frame; expressed in transfected cells; host or cells: HT1080 (ATCC CCL-121), stably transduced with lentivirus pLV-UBC-N-HiBiT-BCL6-PGK-puro
Outline: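 HT1080 cells stably expressing N-terminal HiBiT-BCL6 were treated with compound dilution series for 5 h at 37° C. in RPMI 1640 with 10% FBS. HiBiT lytic luminescence read after 15 min; degradation normalized to DMSO, with curves fitted by four-parameter logistic model.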

[2] = Pharmacokinetic assessment in male CD-1 mice (IV and PO); type: in vivo; conditions: mouse, plasma; for clearance: clearance (IV), commonly 1 mg/kg; for clearance / AUC(0-inf): non-compartmental model; for bioavailability: oral bioavailability, PO commonly 10 mg/kg vs IV commonly 1 mg/kg; for Cmax / AUC(0-inf): route not given
Protocol: Pharmacokinetics (PK) studies were conducted on male CD-1 mice by two delivery routes: intravenous (IV) injection and oral gavage (PO). Mice for the IV group (n=3) were allowed free access to food and water and mice for the PO group (n=3) were fasted 6-8 hours prior to dosing. The test articles were formulated in solution for the IV route (commonly 5% DMSO/10% Solutol HS15/85% water (pH 5)) and solution or suspension for the PO route (commonly 100% PEG400). On the day of the experiment, test article was administered via vein injection (commonly 1 mg/kg) for IV route or via oral gavage (commonly 10 mg/kg) for PO route, respectively. Blood samples were collected via the saphenous vein using a needle (commonly 20G) at 0.83 to 24 hours post dose. Approximately 30 μL of blood per timepoint was collected into pre-chilled tubes using K2EDTA as the anti-coagulant. After collection of blood samples at each time point, the blood samples were stored on ice. Blood samples were centrifuged within 0.5 hour of collection to separate plasma. Centrifugation was conducted at 2500×g for 15 minutes at 4° C. Plasma samples were immediately acidified (commonly 0.1M sodium citrate (pH=5) buffer). The samples were then submitted to LC-MS/MS for sample analysis. Pharmacokinetics parameters, including clearance (IV), area under the curve (AUC), and oral bioavailability (% F) were calculated by non-compartmental model.

| Ymin (5 hr) [1] | clearance [2] | bioavailability [2] | Cmax [2] | AUC(0-inf) [2] | SMILES |
| --- | --- | --- | --- | --- | --- |
| +++ (25% < Ymin ≤ 50%) | 10.8 mL/min/kg | 67.5% | 2550 nM | 13.5 µM·h | CNC(=O)COc1cc2cc(Nc3nc(N4CCN(CC5CCN(c6ccc7c(C8CCC(=O)NC8=O)nn(C)c7c6)CC5)CC4)ncc3Cl)ccc2n(C)c1=O (stereo not shown) [Compound 102, 2-((6-((5-chloro-2-(4-((1-(3-(2,6-dioxopiperidin-3-yl)-1-methyl-1H-indazol-6-yl)piperidin-4-yl)methyl)piperazin-1-yl)pyrimidin-4-yl)amino)-1-methyl-2-oxo-1,2-dihydroquinolin-3-yl)oxy)-N-methylacetamide] |
| +++ (25% < Ymin ≤ 50%) |  |  |  |  | CNC(=O)COc1cc2cc(Nc3nc(N4CCC(CN5CCN(C(=O)c6ccc7c(C8CCC(=O)NC8=O)nn(C)c7c6)CC5)CC4)ncc3Cl)ccc2n(C)c1=O (stereo not shown) [Compound 322, 2-((6-((5-chloro-2-(4-((4-(3-(2,6-dioxopiperidin-3-yl)-1-methyl-1H-indazole-6-carbonyl)piperazin-1-yl)methyl)piperidin-1-yl)pyrimidin-4-yl)amino)-1-methyl-2-oxo-1,2-dihydroquinolin-3-yl)oxy)-N-methylacetamide] |
| ++++ (Ymin ≤ 25%) | 12.8 mL/min/kg | 76.4% | 3400 nM | 12.6 µM·h | CNC(=O)COc1cc2cc(Nc3nc(N4CCN(CC5CCN(c6cccc7c(C8CCC(=O)NC8=O)nn(C)c67)CC5)CC4)ncc3Cl)ccc2n(C)c1=O (stereo not shown) [Compound 101, 2-((6-((5-chloro-2-(4-((1-(3-(2,6-dioxopiperidin-3-yl)-1-methyl-1H-indazol-7-yl)piperidin-4-yl)methyl)piperazin-1-yl)pyrimidin-4-yl)amino)-1-methyl-2-oxo-1,2-dihydroquinolin-3-yl)oxy)-N-methylacetamide] |
| ++++ (Ymin ≤ 25%) |  |  |  |  | CNC(=O)COc1cc2cc(Nc3nc(N4CCN(CC5CCN(c6cccc7c(C8CCC(=O)NC8=O)nn(C)c67)CC5)[C@H](C)C4)ncc3Cl)ccc2n(C)c1=O (stereo partly drawn) [Compound 308a, 2-((6-((5-chloro-2-((3R)-4-((1-(3-(2,6-dioxopiperidin-3-yl)-1-methyl-1H-indazol-7-yl)piperidin-4-yl)methyl)-3-methylpiperazin-1-yl)pyrimidin-4-yl)amino)-1-methyl-2-oxo-1,2-dihydroquinolin-3-yl)oxy)-N-methylacetamide] |
| ++ (50% < Ymin ≤ 70%) |  |  |  |  | CNC(=O)COc1cc2cc(Nc3nc(N4CCC[C@H](CNc5cccc6c(C7CCC(=O)NC7=O)nn(C)c56)C4)ncc3Cl)ccc2n(C)c1=O (stereo partly drawn) [Compound 266b, 2-((6-((5-chloro-2-((3R)-3-(((3-(2,6-dioxopiperidin-3-yl)-1-methyl-1H-indazol-7-yl)amino)methyl)piperidin-1-yl)pyrimidin-4-yl)amino)-1-methyl-2-oxo-1,2-dihydroquinolin-3-yl)oxy)-N-methylacetamide] |
| ++++ (Ymin ≤ 25%) |  |  |  |  | CNC(=O)COc1cc2cc(Nc3nc(N4CCN(C[C@@H]5CCN(c6ccc7c(C8CCC(=O)NC8=O)nn(C)c7c6)C5)CC4)ncc3Cl)ccc2n(C)c1=O (stereo partly drawn) [Compound 306b, 2-((6-((5-chloro-2-(4-(((3S)-1-(3-(2,6-dioxopiperidin-3-yl)-1-methyl-1H-indazol-6-yl)pyrrolidin-3-yl)methyl)piperazin-1-yl)pyrimidin-4-yl)amino)-1-methyl-2-oxo-1,2-dihydroquinolin-3-yl)oxy)-N-methylacetamide] |
| +++ (25% < Ymin ≤ 50%) |  |  |  |  | CNC(=O)COc1cc2cc(Nc3nc(N4CCC(CCCOc5ccc6c(C7CCC(=O)NC7=O)nn(C)c6c5)CC4)ncc3Cl)ccc2n(C)c1=O (stereo not shown) [Compound 296, 2-((6-((5-chloro-2-(4-(3-((3-(2,6-dioxopiperidin-3-yl)-1-methyl-1H-indazol-6-yl)oxy)propyl)piperidin-1-yl)pyrimidin-4-yl)amino)-1-methyl-2-oxo-1,2-dihydroquinolin-3-yl)oxy)-N-methylacetamide] |
| ++++ (Ymin ≤ 25%) |  |  |  |  | CNC(=O)COc1cc2cc(Nc3nc(N4CCC(CN5CCN(c6cccc7c(C8CCC(=O)NC8=O)nn(C)c67)CC5)CC4)ncc3Cl)ccc2n(C)c1=O (stereo not shown) [Compound 333, 2-((6-((5-chloro-2-(4-((4-(3-(2,6-dioxopiperidin-3-yl)-1-methyl-1H-indazol-7-yl)piperazin-1-yl)methyl)piperidin-1-yl)pyrimidin-4-yl)amino)-1-methyl-2-oxo-1,2-dihydroquinolin-3-yl)oxy)-N-methylacetamide] |
